Drawing on patent publication US7094524B2, “Thermally development imaging materials having backside stabilizers” (Eastman Kodak Company, priority 2003, dated 2006), this text covers pH for eight compounds.

A short description of this data set: pH of 0.005 molar solution in 15% methanol/85% water. Format: physicochemical. The source says: TABLE I also includes vapor pressure (VP) and pKa values for the various backside stabilizers.
In the case of `CN(C)C(=N)N(C)C` [AB-3], the pH came to 11.8.

`C1CCC2=NCCCN2CC1` [AB-6, 1,8-diazabicyclo[5.4.0]undec-7-ene] had a pH of 11.8.

For the compound `c1ccc(CN(Cc2ccccc2)Cc2ccccc2)cc1` [AB-9], the pH worked out at 8.6.

`N=C(Nc1ccccc1)Nc1ccccc1` [AB-8]: the pH was 10.6.

On to `c1ccc(Nc2ccccn2)nc1` [AB-7], for which the pH worked out at 8.5.

`C1CNCCN1` [AB-1]: the pH turned out to be 10.4.

Consider `C1CN2CCN1CC2` [AB-2], for which the pH came out at 9.8.

`OCCN(CCO)CCO` [AB-5]: the pH turned out to be 9.1.
